Our source for the T/C values is PubChem BioAssay AID328 (DTP/NCI, 2004).

In the test the test system is BDF1 mice, P388 leukemia ip, median survival T/C. Briefly: NCI In Vivo Anticancer Drug Screen. Data for tumor model P388 Leukemia (intraperitoneal) in B6D2F1 (BDF1) mice. The conditions noted are these: endpoint: median survival time, higher = longer survival. The essentials:
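Read-out is survival of treated animals expressed relative to the vehicle group, as a T/C ratio.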

Where [1] appears, read: dose: 25.0 mg/kg/injection, schedule: Q01DX009 (ip), vehicle: saline.
Setting [2] is: dose: 50.0 mg/kg/injection, schedule: Q01DX009 (ip), vehicle: Klucel (hydroxypropylcellulose) (HPC).
Setting [3] is: dose: 100.0 mg/kg/injection, schedule: Q01DX009 (ip), vehicle: Klucel (hydroxypropylcellulose) (HPC).
[4] abbreviates: dose: 200.0 mg/kg/injection, schedule: Q01DX009 (ip), vehicle: Klucel (hydroxypropylcellulose) (HPC).
The mark [5] stands for this setting: dose: 100.0 mg/kg/injection, schedule: Q04DX003 (ip), vehicle: saline with Tween-80.
[6] abbreviates: dose: 200.0 mg/kg/injection, schedule: Q04DX003 (ip), vehicle: saline with Tween-80.
[7] abbreviates: dose: 400.0 mg/kg/injection, schedule: Q04DX003 (ip), vehicle: saline with Tween-80.
Setting [8] is: dose: 25.0 mg/kg/injection, schedule: Q01DX009 (ip), vehicle: saline with Tween-80.
The mark [9] stands for this setting: dose: 50.0 mg/kg/injection, schedule: Q01DX009 (ip), vehicle: saline with Tween-80.
Where [10] appears, read: dose: 100.0 mg/kg/injection, schedule: Q01DX009 (ip), vehicle: saline with Tween-80.
Setting [11] is: dose: 200.0 mg/kg/injection, schedule: Q01DX009 (ip), vehicle: saline with Tween-80.
[12] abbreviates: dose: 100.0 mg/kg/injection, schedule: Q01DX009 (ip), vehicle: saline.
The mark [13] stands for this setting: dose: 200.0 mg/kg/injection, schedule: Q01DX009 (ip), vehicle: saline.

Values joined by “and” are separate entries in the source; they are usually repeats but may differ in a detail not shown here. Equal values may be shown once. Inconclusive results and toxic doses are left out.

On to `CC[CH2][Pb]([Cl])([CH2]CC)[CH2]CC`, for which the T/C was 87 % of control (dose: 0.18 mg/kg/injection, schedule: Q01DX009 (ip), vehicle: DMSO); 109 % of control (dose: 0.37 mg/kg/injection, schedule: Q01DX009 (ip), vehicle: DMSO); 102 % of control (dose: 0.75 mg/kg/injection, schedule: Q01DX009 (ip), vehicle: DMSO).
`CC(C(=O)O)C(=O)O.[NH2-].[NH2-].[Pt+2]`: the T/C (dose: 6.25 mg/kg/injection, schedule: Q01DX009 (ip), vehicle: saline) was 93 % of control and the T/C under setting [1] is 214 % of control.
For `CCOC(=O)c1cnc(=S)[nH]c1N`, the T/C by setting is: under setting [2], 95 % of control; (dose: 50.0 mg/kg/injection, schedule: Q04DX003 (ip), vehicle: Klucel (hydroxypropylcellulose) (HPC)) 109 % of control; under setting [3], 100 % of control; (dose: 100.0 mg/kg/injection, schedule: Q04DX003 (ip), vehicle: Klucel (hydroxypropylcellulose) (HPC)) 100 % of control; under setting [4], 95 % of control; (dose: 200.0 mg/kg/injection, schedule: Q04DX003 (ip), vehicle: Klucel (hydroxypropylcellulose) (HPC)) 109 % of control.
Take `Cc1ccc(NC(=O)Nc2ccccc2F)cc1NC(=O)Nc1ccccc1F`: the T/C under setting [5] is 104 % of control, the T/C under setting [6] was 109 % of control and the T/C under setting [7] was 109 % of control.
For the compound `O=C(CCC[N+](=O)[O-])c1ccccc1`, the T/C runs as follows: (dose: 50.0 mg/kg/injection, schedule: Q01DX005 (ip), vehicle: saline with Tween-80) 113 % of control; (dose: 100.0 mg/kg/injection, schedule: Q01DX005 (ip), vehicle: saline with Tween-80) 113 % of control; (dose: 200.0 mg/kg/injection, schedule: Q01DX005 (ip), vehicle: saline with Tween-80) 99 % of control.
`CCNC1=C(N2CC2)C(=O)C(NCC)=C(N2CC2)C1=O`: the T/C by setting is: (dose: 0.37 mg/kg/injection, schedule: Q01DX009 (ip), vehicle: saline) 156 % of control and 175 % of control; (dose: 0.75 mg/kg/injection, schedule: Q01DX009 (ip), vehicle: saline) 193 % of control and 203 % of control; (dose: 1.5 mg/kg/injection, schedule: Q01DX009 (ip), vehicle: saline) 228 % of control and 178 % of control.
For the compound `CCOC(=O)c1c[nH]c2c(OC)cccc2c1=O`, the T/C is 93 % of control under setting [8]; 109 % of control under setting [9]; 109 % of control under setting [10]; 99 % of control under setting [5]; 109 % of control under setting [11]; 98 % of control under setting [6]. In addition, the T/C (dose: 300.0 mg/kg/injection, schedule: Q01DX009 (ip), vehicle: saline with Tween-80) is 90 % of control.
Take `C=CCc1cn(C2CC(O)C(CO)O2)c(=O)[nH]c1=O` (stereo unspecified): the T/C was 116 % of control under setting [12]; 108 % of control under setting [13]; 116 % of control (dose: 400.0 mg/kg/injection, schedule: Q01DX009 (ip), vehicle: saline).
Take `c1ccc(CCNCc2ccccc2)cc1`: the T/C was 100 % of control under setting [8], 100 % of control under setting [9] and 100 % of control under setting [10].
As for `O=C(Nc1ccc2c(c1)C(Br)c1ccccc1-2)C(F)(F)F` (stereo unspecified), the T/C runs as follows: under setting [2], 90 % of control; under setting [3], 100 % of control; under setting [4], 118 % of control.
As to `N#C/C(=C/c1ccccc1)CBr`, the T/C (dose: 25.0 mg/kg/injection, schedule: Q01DX001 (ip), vehicle: saline with Tween-80) is 102 % of control and the T/C (dose: 50.0 mg/kg/injection, schedule: Q01DX001 (ip), vehicle: saline with Tween-80) is 93 % of control.
As for `Cc1ccc(NC(=O)OCCOc2ccc(-c3ccccc3)cc2)c([N+](=O)[O-])c1`, the T/C was 100 % of control (dose: 12.5 mg/kg/injection, schedule: Q01DX009 (ip), vehicle: DMSO); 119 % of control (dose: 25.0 mg/kg/injection, schedule: Q01DX009 (ip), vehicle: DMSO); 102 % of control (dose: 50.0 mg/kg/injection, schedule: Q01DX009 (ip), vehicle: DMSO).
Consider `CC1CCC(NC2=NCCO2)C1` (stereo unspecified), for which the T/C is 87 % of control (dose: 100.0 mg/kg/injection, schedule: Q01DX001 (ip), vehicle: saline with Tween-80); 91 % of control (dose: 200.0 mg/kg/injection, schedule: Q01DX001 (ip), vehicle: saline with Tween-80); 95 % of control (dose: 400.0 mg/kg/injection, schedule: Q01DX001 (ip), vehicle: saline with Tween-80).
With `S=C1SCN(Cc2ccccc2)CN1Cc1ccccc1`, the T/C by setting is: (dose: 100.0 mg/kg/injection, schedule: Q01DX001 (ip), vehicle: Klucel (hydroxypropylcellulose) (HPC)) 113 % of control; (dose: 200.0 mg/kg/injection, schedule: Q01DX001 (ip), vehicle: Klucel (hydroxypropylcellulose) (HPC)) 100 % of control; (dose: 400.0 mg/kg/injection, schedule: Q01DX001 (ip), vehicle: Klucel (hydroxypropylcellulose) (HPC)) 100 % of control.
With `NNC(=O)c1ccccn1`, the T/C by setting is: under setting [1], 92 % of control; (dose: 50.0 mg/kg/injection, schedule: Q01DX009 (ip), vehicle: saline) 100 % of control; under setting [12], 100 % of control; (dose: 100.0 mg/kg/injection, schedule: Q04DX003 (ip), vehicle: saline) 88 % of control.
Take `CSc1cccc(NC(=O)Nc2onc(C)c2C)c1`: the T/C is, setting by setting: (dose: 12.5 mg/kg/injection, schedule: Q01DX009 (ip), vehicle: Klucel (hydroxypropylcellulose) (HPC)) 101 % of control; (dose: 25.0 mg/kg/injection, schedule: Q01DX009 (ip), vehicle: Klucel (hydroxypropylcellulose) (HPC)) 99 % of control; under setting [2], 101 % of control.
For the compound `O=C1C=C(O/C=C/C(C(F)(F)F)C(F)(F)F)C(=O)c2ccccc21`, the T/C under setting [10] was 109 % of control.
Consider `OCCCN1CNC(=S)NC1`, for which the T/C reads like this: under setting [12], 108 % of control; under setting [13], 108 % of control.
On to `C=C(C)C(=O)NCCCCCC(=O)Oc1ccc([N+](=O)[O-])cc1`, for which the T/C reads like this: (dose: 12.5 mg/kg/injection, schedule: Q01DX009 (ip), vehicle: saline with Tween-80) 95 % of control; under setting [8], 116 % of control; under setting [9], 86 % of control and 106 % of control; under setting [11], 86 % of control.
On to `CC(CNC(=O)CCOS(C)(=O)=O)NC(=O)CCOS(C)(=O)=O` (stereo unspecified), for which the T/C is 213 % of control (dose: 264.0 mg/kg/injection, schedule: Q04DX003 (ip), vehicle: saline with Tween-80); 183 % of control (dose: 267.0 mg/kg/injection, schedule: Q04DX003 (ip), vehicle: saline with Tween-80); 208 % of control and 209 % of control under setting [7]; 212 % of control (dose: 500.0 mg/kg/injection, schedule: Q04DX003 (ip), vehicle: saline with Tween-80); 109 % of control (dose: 600.0 mg/kg/injection, schedule: Q04DX003 (ip), vehicle: saline with Tween-80).
